# Assays:
# [1] = system: interferon (α) (IFN-α); assay: Cytokine induction in human cells: IFN-α secreted by PBMC into culture media (ELISA); type: cell-based; details: Table 10
# Procedure, shortened: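 Human donor PBMC, 2×10^6 cells/mL final in RPMI complete, treated 18–24 h at 37 °C, 5% CO2 with 3-fold dilutions (usually 30-0.014 μM), DMSO ≤1%. Supernatant IFN-α by multi-subtype sandwich ELISA, background-subtracted and reference-adjusted; minimum effective concentration = lowest concentration exceeding usually 20 pg/mL.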
# [2] = system: tumor necrosis factor (α) (TNF-α); assay: Cytokine induction in human cells: TNF-α secreted by PBMC into culture media (ORIGEN M-Series immunoassay); type: cell-based; details: Table 10
# Procedure, shortened: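 Human donor PBMC (final 2×10^6 cells/mL) were incubated 18 to 24 hours at 37° C with compound, usually 30-0.014 μM in 3-fold steps, ≤1% DMSO. Supernatant TNF-α was measured by ORIGEN immunoassay, background-subtracted and reference-adjusted; minimum effective concentration was the lowest concentration exceeding a fixed cytokine threshold.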
# [3] = maximal response in dose response curve, * = below experimental background level, median
SMILES,melting point,also measured
"CC(C)(O)Cn1c(CO)nc2c(N)nc3cc(OCc4cscn4)ccc3c21 [Example 187, 1-[4-Amino-2-hydroxymethyl-7-(thiazol-4-ylmethoxy)-1H-imidazo[4,5-c]quinolin-1-yl]-2-methylpropan-2-ol]",260 to 262 °C,
"CC(C)[C@H](N)C(=O)OCc1nc2c(N)nc3ccccc3c2n1CC(C)(C)O [Example 636, [4-Amino-1-(2-hydroxy-2-methylpropyl)-1H-imidazo[4,5-c]quinolin-2-yl]methyl L-valinate]",190 to 192 °C,
CCCNC(=O)NCCCCn1c(CCC)nc2c(N)nc3cc(-c4cccnc4)ccc3c21 [Analog 30],,"minimal effective concentration ([1]; human PBMC, lowest tested concentration inducing IFN-α over usually 20 pg/mL, median where more than one experiment, read-out: Minimum Effective Concentration (μM) IFN): 0.37 µM; Maximal Response (pg/mL) IFN [1, 3]: 531 pg/mL; minimal effective concentration ([2]; human PBMC, lowest tested concentration inducing TNF-α over usually 40 pg/mL, median where more than one experiment, read-out: Minimum Effective Concentration (μM) TNF): 0.37 µM; Maximal Response (pg/mL) TNF [2, 3]: 5284 pg/mL"

# More lines, main results first:
melting point,SMILES,also measured
203 to 205 °C,"CC(=O)OCc1nc2c(N)nc3ccccc3c2n1CC(C)(C)O [Example 635, [4-Amino-1-(2-hydroxy-2-methylpropyl)-1H-imidazo[4,5-c]quinolin-2-yl]methyl acetate]",
187 to 189 °C,"CC(=O)OCCc1nc2c(N)nc3ccccc3c2n1CC(C)C [Example 634, 2-(4-Amino-1-isobutyl-1H-imidazo[4,5-c]quinolin-2-yl)ethyl acetate]",

# Reference: US8846710B2, “Method of preferentially inducing the biosynthesis of interferon” (3M Innovative Properties Company, priority 2005, dated 2014)
